Results reported in patent US20060018846A1, “Animo substituted hydroxyphenyl benzophenone derivatives” (priority 2002, published 2006).

Assays:
[1] = UV spectrum (absorption maximum and molar extinction); format: physicochemical
Excerpt: UV Spectrum (in Dioxan) • Maximum at 359 nm; e=34724
UV Spectrum (in Dioxan): • Maximum at 360 nm; e=37900
UV Spectrum (in Dioxan): • Maximum at 359 nm; e=35080
UV-Spectrum in Dioxan: Max. 351 nm, mol Ext. 65551
UV Spectrum in Ethanol: Max. 354 nm, mol. Ext. 65296

[2] = Solubility in Finsolve TN (C 12-15 alkylbenzoate); format: physicochemical
Excerpt: It has a good solubility for example in Finsolve TN (C 12-15 alkylbenzoate)>10%.
The obtained compound is an amorphous, yellow powder Solubility in Finsolve TN>30%

Structure (SMILES) | UV spectrum: Maximum (wavelength; 1. Maximum where two are given) ([1]; in Dioxan) [nm] | UV spectrum: e / mol Ext. at the maximum (1. Maximum where two are given) ([1]; in Dioxan) | Solubility in Finsolve TN (C 12-15 alkylbenzoate) [2] [%] | UV spectrum: Max. (wavelength) ([1]; in Ethanol) [nm] | UV spectrum: mol. Ext. ([1]; in Ethanol) | UV spectrum: 2. Maximum (wavelength) ([1]; in Dioxan) [nm] | UV spectrum: e at 2. Maximum ([1]; in Dioxan)
CCN(CC)c1ccc(C(=O)c2ccccc2C(=O)Nc2ccccc2)c(O)c1 [Example 8] | 359 | 34724 |  |  |  |  | 
CCN(CC)c1ccc(C(=O)c2ccccc2C(=O)OCC(C)(C)COC(=O)c2ccccc2C(=O)c2ccc(N(CC)CC)cc2O)c(O)c1 [Example 12] |  |  | > 30 | 354 | 65296 |  | 
CCN(CC)c1ccc(C(=O)c2ccccc2C(=O)OC2CC(C)CCC2C(C)C)c(O)c1 (centres unmarked) [Example 6] | 351 | 38565 |  |  |  |  | 
CCN(CC)c1ccc(C(=O)c2ccccc2C(=O)Nc2ccc(-c3nc4ccc(C)cc4s3)cc2)c(O)c1 [Example 2] | 336 | 57318 |  |  |  | 360 | 49032
CCN(CC)c1ccc(C(=O)c2ccccc2C(=O)Nc2ccc(C(N)=O)cc2)c(O)c1 [Example 4] | 358 | 34848 |  |  |  |  | 
CCN(CC)c1ccc(C(=O)c2ccccc2C(=O)OC/C=C/COC(=O)c2ccccc2C(=O)c2ccc(N(CC)CC)cc2O)c(O)c1 [Example 11] | 351 | 65551 | > 10 |  |  |  | 
CCN(CC)c1ccc(C(=O)c2ccccc2C(=O)N2CCOCC2)c(O)c1 [Example 9] | 360 | 37900 |  |  |  |  | 
CCN(CC)c1ccc(C(=O)c2ccccc2C(=O)N(CCO)CCO)c(O)c1 [Example 10] | 359 | 35080 |  |  |  |  | 
